# Laboratory results reported in publication PMC12707362, “Targeting Aurora Kinases as Essential Cell‐Cycle Regulators to Deliver Multi‐Stage Antimalarials Against Plasmodium Falciparum” (Angewandte Chemie (International Ed. in English), 2025).
# Like-named read-outs stand apart in the source and are kept apart here.
# What was measured:
# [1] = tested on: P. berghei liver schizonts in HepG2-A16-CD81EGFP cells; assay: P. berghei (PbLuc) liver stage assay; assay type: cell-based; settings: Plasmodium berghei
# Description: (B) Antiplasmodial activity of nine anticancer aurora kinase inhibitors (selected based on their PfNF54 ABS activity) against P. falciparum multidrug-resistant ABS parasites (PfDd2 and PfK1). (C) Kinobead competitive inhibition data.
# Plasmodium berghei (Pb) sporozoites were obtained by dissecting the salivary glands of infected Anopheles stephensi mosquitoes. These were provided by The SporoCore, at the University of Georgia, GA, USA (SporoCore.uga.edu). The parasites utilised a GFP-Lucama1-eef1 reporter line^[5]. These engineered parasites, termed Pb-Luc, were used to infect HepG2-A16-CD81EGFP cells. HepG2-A16-CD81EGFP cells stably transformed to express a GFP-CD81 fusion protein^[6] were cultured at 37 °C in 5% CO2 in DMEM (Invitrogen, Carlsbad, USA) supplemented with 10% FBS (Corning, NY, USA), 1X Pen/Strep/Glu (Thermo Fisher Scientific, USA). Compounds were prepared as 10 mM solutions in DMSO, and 10 nL of each (resulting in a final DMSO concentration of 0.1% per well) was transferred into assay plates using an ECHO 650 (Beckman). Concentrations ranged from 10 µM to 0.5 nM. Atovaquone (0.1 µM) served as a positive control, while 0.1% DMSO was used as a negative control. Liver stage (PbLuc) screening has been previously described^[7]. Human hepatic cells (3 × 10^3; HepG2-A16-CD81-EGFP) suspended in 5 µL of DMEM medium ([…], supplemented with 5% FBS, 5× Pen/Strep/Glu) were seeded in 1536-well plates (Greiner BioOne) using the MultiFlo FX (Agilent) 20 h before infection. PbLuc sporozoites, isolated from the salivary glands of A. stephensi mosquitoes, were filtered twice through a 20 µm nylon pore cell strainer. The sporozoites were resuspended in screening media, counted with a hemocytometer, and diluted to a final concentration of 200 sporozoites per µL. Each well received 1,000 sporozoites in 5 µL, dispensed via the GNF Dispenser II (GNF Systems). […] Luminescence was measured immediately with the Pherastar FSX reader (BMG Labtech). Luminescence values were normalized using the positive and negative controls. EC50 values were calculated with CDD Vault (Burlingame, CA). […]
# Plasmodium kinases = assay: Kinobead competitive inhibition; assay type: binding; settings: 10 µM, log2 fold change below -1 versus vehicle
# [2] = tested on: pool of barcoded drug-resistant P. falciparum parasites (Dd2 and 3D7 backgrounds); assay type: cell-based, Plasmodium falciparum; settings: 3xIC50
# Description: The pool consisted of 52 lines (Supplementary File S2) in both the Dd2 and 3D7 backgrounds, including wild-type, that were barcoded at the pfpare locus (PF3D7_0709700)^[18], with unique 11-bp barcode sequences. The pool (triplicate cultures of 1 mL) was exposed to 3 xIC50 of each test compound, including the positive control compound halofuginone that targets prolyl tRNA synthetase. Growth of the pool was measured every 2–3 days by flow cytometry (Beckman CytoFlex 5), staining with 1xSYBR Green I and 200 nM MitoTracker Deep Red, and parasitemia maintained within a range <5% parasitemia. At day 14, samples were harvested, lysed with 0.05% saponin and parasite pellets collected. Barcodes were amplified by PCR and quantified by sequencing using an Oxford Nanopore minION. The change in barcode proportion (log2 fold change, LFC) was measured relative to the no-drug control, with LFC>2.5 indicating cross-resistance.
smiles,measurement,setting,value
"COc1cc(N2CCC(N3CCN(C)CC3)CC2)ccc1Nc1ncc(Cl)c(Nc2ccccc2S(=O)(=O)C(C)C)n1 [TAE684, NVP-TAE684]",IC50,[1]; read-out: IC50 P. berghei liver schizonts,< 200 nM
same,IC50,"[1]; 48 h, PbLuc, read-out: Pb liver stage IC50",660 nM
same,Plasmodium kinases competed from Kinobeads,Plasmodium kinases,three Plasmodium kinases were competed from Kinobeads
same,barcode population Day 14,[2]; line 3D7 (Wild type),5.080
same,barcode population Day 14,[2]; line 3D7 ABCI3 R2180P,2.690
same,barcode population Day 14,[2]; line 3D7 ACS10 M300I,3.200
same,barcode population Day 14,[2]; line 3D7 ACS11 D648Y,0.620
same,barcode population Day 14,[2]; line 3D7 ATP2 CNV2,2.100
same,barcode population Day 14,[2]; line 3D7 DHFR-TS G378E,0.990
same,barcode population Day 14,[2]; line 3D7 DHFR-TS I403L,3.400
same,barcode population Day 14,[2]; line 3D7 FTb A515T,1.770
same,barcode population Day 14,[2]; line 3D7 MDR2 K840N,1.670
same,barcode population Day 14,[2]; line 3D7 NCR1 A1108T,2.230
same,barcode population Day 14,[2]; line Dd2 (Wild type),5.040
same,barcode population Day 14,[2]; line Dd2-pol-delta D308A-E310A,0.01
same,barcode population Day 14,[2]; line Dd2 ATP4 G358S,1.130
same,barcode population Day 14,[2]; line Dd2 ATP4 L927V,1.370
same,barcode population Day 14,[2]; line Dd2 ATP4 Q172H,3.070
same,barcode population Day 14,[2]; line Dd2 AcAS A597V,0.650
same,barcode population Day 14,[2]; line Dd2 AcAS T648M,2.430
same,barcode population Day 14,[2]; line Dd2 AsnRS R487S,1.530
same,barcode population Day 14,[2]; line Dd2 CARL I1139K-a,0.010
same,barcode population Day 14,[2]; line Dd2 CARL I1139K-b,0.230
same,barcode population Day 14,[2]; line Dd2 CARL V1103L,0.680
same,barcode population Day 14,[2]; line Dd2 CLK3 H259P,1.590
same,barcode population Day 14,[2]; line Dd2 CPSF Y408S E,1.340
same,barcode population Day 14,[2]; line Dd2 CPSF Y408S S,0.580
same,barcode population Day 14,[2]; line Dd2 CRT M343L,2.390
same,barcode population Day 14,[2]; line Dd2 CSC1 L800P,1.280
same,barcode population Day 14,[2]; line Dd2 DHFR-TS S216R,1.710
same,barcode population Day 14,[2]; line Dd2 DHODH C276Y,3.290
same,barcode population Day 14,[2]; line Dd2 DHODH F227I,0.650
same,barcode population Day 14,[2]; line Dd2 DHODH I263F,0.120
same,barcode population Day 14,[2]; line Dd2 DHODH L531F,0.480
same,barcode population Day 14,[2]; line Dd2 GGPPS S228T,0.800
same,barcode population Day 14,[2]; line Dd2 HSP90 A41S,2.760
same,barcode population Day 14,[2]; line Dd2 IleRS E180D,2.660
same,barcode population Day 14,[2]; line Dd2 IleRS L810F,1.180
same,barcode population Day 14,[2]; line Dd2 IleRS V500A,0.960
same,barcode population Day 14,[2]; line Dd2 MCP D195N,0.270
same,barcode population Day 14,[2]; line Dd2 MCP P214T,5.790
same,barcode population Day 14,[2]; line Dd2 PI4K S743F+H1484Y,1.350
same,barcode population Day 14,[2]; line Dd2 PI4K S1320L+L1418F,1.960
same,barcode population Day 14,[2]; line Dd2 PROTB5 A20V,1.090
same,barcode population Day 14,[2]; line Dd2 PROTB5 M45I,1.500
same,barcode population Day 14,[2]; line Dd2 ProRS L482H,6.690
same,barcode population Day 14,[2]; line Dd2 QRP1 D1863Y,5.420
same,barcode population Day 14,[2]; line Dd2 TyrRS S234C,2.590
same,barcode population Day 14,[2]; line Dd2 UDP-GT F37V,0.250
same,barcode population Day 14,[2]; line Dd2 cytBC1 G33V,1.410
same,barcode population Day 14,[2]; line Dd2 cytBC1 V284L,1.550
same,barcode population Day 14,[2]; line Dd2 eEF2 L755F,1.200
same,barcode population Day 14,[2]; line Dd2 eEF2 Y186N,1.260
same,barcode population Day 14,[2]; line Dd2 kelch13 C580C,2.860
same,barcode population Day 14,[2]; line Dd2 kelch13 C580Y,2.440
same,barcode population Day 14,[2]; line Dd2 kelch13 R539T,0.670
